Results from patent US20080090835A1, “Polymorphic forms of ziprasidone HCl and processes for their preparation” (Teva Pharmaceuticals USA, Inc. for Barbados, priority 2003, published 2008).
Structures can show the parent of a compound that is named as a salt.

Tests used:
Assay type in all cases: physicochemical
Solubility in water = experiment: Solubility in water
[1] = Equilibration at different relative humidities for 22 days: water uptake (TGA weight loss) and crystal form; conditions: for TGA weight loss (%) (water uptake): HCl
Text: (§1) Form A is characterized by an X-Ray diffraction pattern having peaks at about 10.9, 17.4 19.1, 25.0 and 26.0±0.2 degrees 2 theta.
(§2) In another aspect, the present invention provides for ziprasidone HCl Form F. Ziprasidone HCl Form F is characterized by an XRD pattern (FIG. 7) with peaks at 11.0, 18.1, 19.5, 21.9±0.2 degrees 2 theta. Ziprasidone HCl Form F is further characterized by XRD peaks at 14.9, 24.9, 26.1±0.2 degrees 2 theta. […] The water content and the weight loss by TGA of the sample may range of about 2.6% to about 16% by weight.
(§3) X-Ray powder diffraction data were obtained using by method known in the art using a SCINTAG powder X-Ray diffractometer model X'TRA equipped with a solid state detector. Copper radiation of 1.5418 Å was used. A round aluminum sample holder with round zero background quartz plate, with cavity of 25(diameter)*0.5(dept) mm.
TGA analysis was done using a Mettler M3 meter. The weight of the samples was about 10 mg; the samples were scanned at a rate of 10° C./min from 25° C. to 200° C. The oven was constantly purged with nitrogen gas at a flow rate of 40 ml/min. Standard 70 μl alumina crucibles covered by lids with 1 hole were used.
(§4) The water content of ziprasidone HCl was measured by the methods known in the art like Karl Fisher or thermogravimetric analysis (TGA). In the case of ziprasidone HCl F, the TGA and Karl Fisher analysis matched, while for ziprasidone HCl form E the TGA analysis exceeded by far that of Karl Fisher, as an indication that a significant quantity of solvent is present.

[2] = Heating at 80-105° C. overnight: crystal form and water content; conditions: for Crystal form after heating at 80-105° C. overnight / Crystal form after heating at elevated temperature: HCl; for Crystal form after heating at elevated temperature: about 80° C. overnight
Text: as §1, §2, §3, §4

[3] = Solubility in methanol (noted for Karl Fisher water determination)
Text: Ziprasidone HCl Form G may have a water content of about 5% to about 12%. Ziprasidone HCl Form G may be a dihydrate (about 7.4% stoichiometric value for the dihydrate) or a trihydrate (about 10.7% stoichiometric value for the trihydrate).

| Solubility in water (Solubility in water) | Crystal form ([1]; RH 0%, 22 days) | TGA weight loss (%) (water uptake) ([1]; RH 0%, 22 days) | TGA weight loss (%) (water uptake) ([1]; RH 20%, 22 days) | TGA weight loss (%) (water uptake) ([1]; RH 40%, 22 days) | TGA weight loss (%) (water uptake) ([1]; RH 60%, 22 days) | Crystal form ([1]; RH 80%, 22 days) | TGA weight loss (%) (water uptake) ([1]; RH 80%, 22 days) | Crystal form ([1]; RH 100%, 22 days) | TGA weight loss (%) (water uptake) ([1]; RH 100%, 22 days) | Crystal form after exposure to relative humidity of about 20% to about 60% ([1]; RH about 20% to about 60%, about 22 days) | Crystal form after exposure to low relative humidity ([1]; about 10% to about 0% relative humidity, 22 days) | Crystal form after exposure to high relative humidity ([1]; high relative humidity, about 22 days) | Crystal form after heating at 80-105° C. overnight [2] | Crystal form after heating at elevated temperature [2] | Crystal form after equilibration at relative humidity of about 0% to about 100% ([1]; RH about 0% to about 100%) | % water content ([2]; after heating at 80-105° C. overnight) | Water content after heating ([2]; heated overnight at about 80° C.) | Solubility in methanol [3] | SMILES |
| --- | --- | --- | --- | --- | --- | --- | --- | --- | --- | --- | --- | --- | --- | --- | --- | --- | --- | --- | --- |
| low solubility | – | – | – | – | – | – | – | – | – | – | – | – | – | – | – | – | – | – | O=C1Cc2cc(CCN3CCN(c4nsc5ccccc45)CC3)c(Cl)cc2N1 [ziprasidone HCl] |
| – | Amorphous | 5.3% | 7.2% | 4.8% | 5.0% | Monohydrate + | 9.2% | Monohydrate + | 51.3% | transforms to Form A | transforms to amorphous form | transforms to form M | Amorphous + form F | transforms to amorphous form | – | – | – | – | O=C1Cc2cc(CCN3CCN(c4nsc5ccccc45)CC3)c(Cl)cc2N1 [ziprasidone HCl form E, ziprasidone HCl] |
| – | – | 2.6% | 4.2% | 4.0% | 4.5% | – | 7.7% | – | 15.8% | – | – | – | Form F | retains its original crystal form | retains its crystal form | 0.8% | 0.8% | – | O=C1Cc2cc(CCN3CCN(c4nsc5ccccc45)CC3)c(Cl)cc2N1 [ziprasidone HCl form F, ziprasidone HCl] |
| – | – | – | – | – | – | – | – | – | – | – | – | – | – | – | – | – | – | sparingly soluble | O=C1Cc2cc(CCN3CCN(c4nsc5ccccc45)CC3)c(Cl)cc2N1 [Ziprasidone HCl Form G, ziprasidone HCl] |
